# Laboratory results reported in patent publication US4140769A, “3-Substituted salicylamides” (Miles Laboratories, Inc., priority 1978, dated 1979).
# Counter-ions that a name gives are not always drawn. Like-named read-outs stand apart in the source and are kept apart here.
# Columns and labels:
# [1] = test system: abdominal constriction response; test: abdominal constriction response (analgesic activity, acetylcholine chloride-induced, s.c. dosing); type: in vivo, mice; details: for ED50: Mus musculus, sc; for analgesic activity, in words: Table II conclusions and summary; for ED50 / potency, in words: compared with control compound, other examples; for analgesic activity (no activity): at 20 mg/kg, hydrochloride
# Procedure: The analgesic activity of the compounds of the present invention was tested in mice by means of the "abdominal constriction" response. The test is based on the observation that following interperitoneal injection of a noxious agent, such as acetylcholine chloride, mice show a response which consists of a wave of constriction and elongation passing caudally along the abdominal wall, sometimes accompanied by twisting of the trunk and followed by extension of the hind limbs. […] Non-fasted female mice, weighing between 20 and 25 g, were used in the studies. […] The animals were then placed in a circular glass enclosure and the number of responses counted during a given time period. Compounds completely inhibiting the response to acetycholine in at least five out of ten animals were subsequently tested at reduced dosage levels, using groups of ten animals per dose. The dose required to produce a specified response, that is, analgesic effect, is termed the individual effective dose; the response is a quantal rather than a graded response, since it is either present or absent. The cumulative frequency distribution of individual effective doses obtained, plotted as a function of logarithm of dose, is known as a dose-percent or dose-response curve. The ED50 and ED90 is then calculated from the dose-response curve obtained in the above experiments. […] The expression ED90 indicates the amount of compound required to produce an analgesic effect in 90 percent of animals tested.
# [2] = test system: abdominal constriction response; test: duration of analgesic activity (abdominal constriction response, time for 50 percent decay of the analgesic effect of the ED90 dosage); type: in vivo, mice; details: for Duration of Activity 1/2 T: time to 50 percent decay of analgesic effect, pharmacologically equipotent doses, based on ED90 dosages; for increase in duration of activity versus unsubstituted control compound (factor): in comparison to the unsubstituted control compound
# Procedure: The analgesic activity of the compounds of the present invention was tested in mice by means of the "abdominal constriction" response. The test is based on the observation that following interperitoneal injection of a noxious agent, such as acetylcholine chloride, mice show a response which consists of a wave of constriction and elongation passing caudally along the abdominal wall, sometimes accompanied by twisting of the trunk and followed by extension of the hind limbs. […] Non-fasted female mice, weighing between 20 and 25 g, were used in the studies. […] The animals were then placed in a circular glass enclosure and the number of responses counted during a given time period.
# [3] = subcutaneous, 10 min before i.p. acetylcholine chloride (3.2 mg/kg), mice, read-out: ED50
Compound,"ED50 [1, 3] [mg/kg]",Duration of Activity 1/2 T [2] [min],"ED50 / potency, in words [1]",also measured
"CCN(CC)CCNC(=O)c1ccccc1O.Cl [Control, N-(2-diethylaminoethyl)salicylamide hydrochloride, reference compound]",16.6,,,"analgesic activity, in words ([1]; mice): exhibited analgesic activity"
"CCN(CC)CCNC(=O)c1cccc(C(C)C)c1O [Example 1, N-(2-diethylaminoethyl)-3-isopropylsalicylamide hydrochloride]",12.7,80,substantially at the same potency as that of the control compound,
"CCN(CC)CCNC(=O)c1cccc(C)c1O [Example 2, N-(2-diethylaminoethyl)-3-methylsalicylamide hydrochloride]",,< 40,fairly low ED50,"duration of analgesic activity, in words ([2]; compared with control or prior art compounds): no meaningful increase in the duration of analgesic activity; ED50 [1]: 14.2 mg/kg; analgesic activity, in words ([1]; mice): exhibited analgesic activity"
"CCCCCCCCc1cccc(C(=O)NCCN(CC)CC)c1O [Example 3, N-(2-diethylaminoethyl)-3-n-octylsalicylamide hydrochloride]",,,,analgesic activity (no activity) [1]: no activity; analgesic activity (no activity) ([1]; listed as n-octyl): no analgesic activity
"CCCCc1cccc(C(=O)NCCN(CC)CC)c1O [Example 4, N-(2-diethylaminoethyl)-3-n-butylsalicylamide oxalate]",31,125,less active analgesics than the other examples and the control sample,increase in duration of activity versus unsubstituted control compound (factor) [2]: greater than 5 fold
"CCN(CC)CCNC(=O)c1cccc(CC(C)C)c1O [Example 5, N-(2-diethylaminoethyl)-3-isobutylsalicylamide hydrochloride]",44.5,205,,increase in duration of activity versus unsubstituted control compound (factor) [2]: greater than 5 fold
"CCN(CC)CCNC(=O)c1cccc(C(C)(C)C)c1O [Example 6, N-(2-diethylaminoethyl)-3-t-butylsalicylamide hydrochloride]",14.3,120,substantially at the same potency as that of the control compound,
"CCN(CC)CCNC(=O)c1cccc(C(C)(C)CC)c1O [Example 7, N-(2-diethylaminoethyl)-3-t-amylsalicylamide hydrochloride]",,,,analgesic activity (no activity) [1]: no activity; analgesic activity (no activity) ([1]; listed as amyl): no analgesic activity
"C=CCc1cccc(C(=O)NCCN(CC)CC)c1O [Example 8, N-(2-diethylaminoethyl)-3-allylsalicylamide oxalate]",17.2,80,,
"C=C(C)Cc1cccc(C(=O)NCCN(CC)CC)c1O [Example 9, N-(2-diethylaminoethyl)-3-methallylsalicylamide oxalate]",23.8,60,substantially at the same potency as that of the control compound,
"CCN(CC)CCNC(=O)c1cccc(Cl)c1O [Example 10, N-(2-diethylaminoethyl)-3-chlorosalicylamide hydrochloride]",,,,analgesic activity (no activity) [1]: no activity; analgesic activity (no activity) ([1]; listed as 3-chloro): no analgesic activity
